In patent US9133115B2 (ACHILLION PHARMACEUTICALS, INC., priority 2008, dated 2015):

The compounds below were run on HCV replicon (assay: HCV replicon replication assay (NPT ELISA) in Huh-7 replicon-containing cells). Conditions: Hepatitis C virus, 72 h; HCV replicon in Huh-7 cells, three days incubation; read-out: EC50.
Type: cell-based
Method in brief: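 Replication was scored by capture ELISA of neomycin phosphotransferase, whose level tracks replicon replication, after graded compound treatment. The cells were Huh-7 harbouring an HCV-IRES/neo/EMCV-IRES/NS3–NS5B/3′-NTR replicon, plated at 6000-7500 cells/well and dosed 24 h later at 60-70% confluence; interferon alpha was the positive control.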

| SMILES | EC50 [nM] |
| --- | --- |
| C=C[C@@H]1C[C@]1(NC(=O)[C@@H]1C[C@@H](Oc2cc(-c3csc(N(C)C)n3)nc3cc(OC)ccc23)CN1C(=O)[C@@H](CC(=O)N1CCCCC1)C(C)(C)C)C(=O)NS(=O)(=O)C1CC1 [Compound 137, (2S,4R)-1-((S)-2-tert-butyl-4-oxo-4-(piperidin-1-yl)butanoyl)-N-((1R,2S)-1-(cyclo-propylsulfonyl-carbamoyl)-2-vinylcyclopropyl)-4-(2-(2-(dimethyl-amino)thiazol-4-yl)-7-methoxyquinolin-4-yloxy)pyrrolidine-2-carboxamide] | < 1000 |
| C=C[C@@H]1C[C@]1(NC(=O)[C@@H]1C[C@@H](Oc2cc(-c3csc(N(C)C)n3)nc3cc(OC)ccc23)CN1C(=O)[C@@H](CC(=O)N1CCOCC1)C(C)(C)C)C(=O)NS(=O)(=O)C1CC1 [Compound 138, (2S,4R)-1-((S)-2-tert-butyl-4-morpholino-4-oxobutanoyl)-N-((1R,2S)-1-(cyclo-propylsulfonyl-carbamoyl)-2-vinyl-cyclopropyl)-4-(2-(2-(dimethylamino)thiazol-4-yl)-7-methoxyquinolin-4-yloxy)pyrrolidine-2-carboxamide] | < 1000 |
| C=C[C@@H]1C[C@]1(NC(=O)[C@@H]1C[C@@H](n2nc(-c3ccccc3)c(-c3ccccc3)n2)CN1C(=O)[C@@H](CC(=O)N1CCCCC1)C(C)(C)C)C(=O)NS(=O)(=O)C1CC1 [Compound 139, (2S,4R)-1-((S)-2-tert-butyl-4-oxo-4-(piperidin-1-yl)butanoyl)-N-((1R,2S)-1-(cyclopropyl-sulfonylcarbamoyl)-2-vinylcyclopropyl)-4-(4,5-diphenyl-2H-1,2,3-triazol-2-yl)pyrrolidine-2-carboxamide] | < 1000 |
| C=C[C@@H]1C[C@]1(NC(=O)[C@@H]1C[C@@H](Oc2cc(-c3ccccc3)nc3cc(OC)ccc23)CN1C(=O)[C@@H](CC(=O)N1CCCC[C@H]1c1cccnc1)C(C)(C)C)C(=O)NS(=O)(=O)C1CC1 [Compound 140, (2S,4R)-1-((S)-2-tert-butyl-4-oxo-4-((S)-2-(pyridin-3-yl)piperidin-1-yl)butanoyl)-N-((1R,2S)-1-(cyclo-propylsulfonyl-carbamoyl)-2-vinylcyclopropyl)-4-(7-methoxy-2-phenylquinolin-4-yloxy)pyrrolidine-2-carboxamide] | < 1000 |
| C=C[C@@H]1C[C@]1(NC(=O)[C@@H]1C[C@@H](Oc2cc(-c3ccccc3)nc3cc(OC)ccc23)CN1C(=O)[C@@H](CC(=O)N1CCCC(=O)C1)C(C)(C)C)C(=O)NS(=O)(=O)C1CC1 [Compound 141, (2S,4R)-1-((S)-2-tert-butyl-4-oxo-4-(3-oxopiperidin-1-yl)butanoyl)-N-((1R,2S)-1-(cyclo-propylsulfonyl-carbamoyl)-2-vinylcyclopropyl)-4-(7-methoxy-2-phenylquinolin-4-yloxy)pyrrolidine-2-carboxamide] | < 1000 |
| C=C[C@@H]1C[C@]1(NC(=O)[C@@H]1C[C@@H](Oc2cc(-c3ccccc3)nc3cc(OC)ccc23)CN1C(=O)[C@@H](CC(=O)N1C(C(=O)O)CC2CCCCC21)C(C)(C)C)C(=O)NS(=O)(=O)C1CC1 (stereo partly drawn) [Compound 142, 1-((S)-3-((2S,4R)-2-((1R,2S)-1-(cyclo-propylsulfonyl-carbamoyl)-2-vinyl-cyclopropyl-carbamoyl)-4-(7-methoxy-2-phenylquinolin-4-yloxy)pyrrolidine-1-carbonyl)-4,4-dimethylpentano-yl)octahydro-1H-indole-2-carboxylic acid] | < 1000 |
| C=C[C@@H]1C[C@]1(NC(=O)[C@@H]1C[C@@H](Oc2nc(-c3ccccn3)nc3cc(OC)ccc23)CN1C(=O)[C@@H](CC(=O)N1CCCCC1)C(C)(C)C)C(=O)NS(=O)(=O)C1CC1 [Compound 144, (2S,4R)-1-((S)-2-tert-butyl-4-oxo-4-(piperidin-1-yl)butanoyl)-N-((1R,2S)-1-(cyclo-propylsulfonyl-carbamoyl)-2-vinyl-cyclopropyl)-4-(7-methoxy-2-(pyridin-2-yl)quinazolin-4-yloxy)pyrrolidine-2-carboxamide] | < 1000 |
